This note sets out measurements from US20180251431A1 (VERTEX PHARMACEUTICALS INCORPORATED, priority 2016, published 2018).

The first assay relates to HEK293 cells. The assay can be described thus: HEK293 VLCFA-LPC IC50 determination (13C-labeled C26:0 LPC by UHPLC/MS). The format is cell-based, human. The settings on record: Homo sapiens, HEK293, 48 h, average of one or more replicates; 13C-labeled C26:0 LPC, 48 hours; read-out: Average HEK293 IC50. A digest of the protocol:
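Suspension HEK293 cells (final 0.5 million/mL after mixing with equal volume) incubated 48 hours with compound plus 13C-acetate (1.0 mg/mL in added media), shaking at 37° C. Lipids extracted with hexane/isopropanol or methanol, C13:0 LPC standard. UHPLC/MS of 13C-labeled C26:0 LPC (638.500/104.100 m/z); IC50 by four-parameter fit.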
On to `CC(C)(C)c1ncc(-n2ccc(NC(=O)C3(c4ccccc4F)CC3)n2)cn1` [Compound 383, N-[1-(2-tert-butylpyrimidin-5-yl)pyrazol-3-yl]-1-(2-fluorophenyl)cyclopropanecarboxamide], for which the IC50 is over 5 µM.
As to `Nc1c(F)cc(-n2ccc(NC(=O)C3(c4ccccc4F)CC3)n2)cc1F` [Compound 384, N-[1-(4-amino-3,5-difluoro-phenyl)pyrazol-3-yl]-1-(2-fluorophenyl)cyclopropanecarboxamide], the 50% inhibitory concentration (IC50) is 0.98 µM.
Same read-out and setting: with `COc1nccc(-n2ccc(NC(=O)C3(c4ccccc4F)CC3)n2)c1C` [Compound 340, 1-(2-fluorophenyl)-N-[1-(2-methoxy-3-methyl-4-pyridyl)pyrazol-3-yl]cyclopropanecarboxamide] the figure was over 5 µM; with `COc1cc(-n2ccc(NC(=O)C3(c4ccccc4F)CC3)n2)nc(C)n1` [Compound 359, 1-(2-fluorophenyl)-N-[1-(6-methoxy-2-methyl-pyrimidin-4-yl)pyrazol-3-yl]cyclopropanecarboxamide], over 5 µM.
Still for that read-out and setting: with `O=C(Nc1ccn(-c2ncc(F)cc2F)n1)C1(c2ccccc2F)CC1` [Compound 391, N-(1-(3,5-difluoropyridin-2-yl)-1H-pyrazol-3-yl)-1-(2-fluorophenyl)cyclopropane-1-carboxamide] the figure was 0.19 µM.
On the same count and under the same terms, with `CC(C)(O)c1ncc(-n2ccc(NC(=O)C3(c4ccccc4F)CC3)n2)cn1` [Compound 382, 1-(2-fluorophenyl)-N-[1-[2-(1-hydroxy-1-methyl-ethyl)pyrimidin-5-yl]pyrazol-3-yl]cyclopropanecarboxamide] the figure was over 5 µM.
For the molecule `O=C(Nc1ccn(-c2ccc(Cl)cn2)n1)C1(c2ccccc2F)CC1` [Compound 398, N-(1-(5-chloropyridin-2-yl)-1H-pyrazol-3-yl)-1-(2-fluorophenyl)cyclopropane-1-carboxamide], the IC50 is over 5 µM.

Still in this assay, the particulars now being: Homo sapiens, HEK293, HEK293 cells; average of one or more replicates; read-out: Average HEK293 IC50.
As for `CCC(C)(C(=O)Nc1ccn(-c2ccccc2)n1)c1ccccc1` (stereo not shown) [Compound 300, 2-methyl-2-phenyl-N-(1-phenylpyrazol-3-yl)butanamide], the IC50 was found to be 0.56 µM.
On the same count and under the same terms, the same measure for `O=C(Nc1ccn(-c2cc(F)cc(F)c2)n1)C1(c2cccs2)CC1` [Compound 480, N-[1-(3,5-difluorophenyl)pyrazol-3-yl]-1-(2-thienyl)cyclopropanecarboxamide]: 0.23 µM; for `CC1CC1(C(=O)Nc1ccn(-c2ccncc2)n1)c1ncccc1F` (stereo not shown) [Compound 528, 1-(3-fluoro-2-pyridyl)-2-methyl-N-[1-(4-pyridyl)pyrazol-3-yl]cyclopropanecarboxamide]: 0.27 µM.
For the molecule `O=C(Nc1ccn(-c2cncc(F)c2)n1)C1(c2ccccn2)CC1` [Compound 464, N-[1-(5-fluoro-3-pyridyl)pyrazol-3-yl]-1-(2-pyridyl)cyclopropanecarboxamide], the concentration for half-maximal inhibition (IC50) came out at 0.13 µM.
As to `O=C(Nc1ccn(-c2ccnc(F)c2)n1)[C@@]1(c2ccccc2)CC12CCC2` [Compound 151, (2S)-N-[1-(2-fluoro-4-pyridyl)pyrazol-3-yl]-2-phenyl-spiro[2.3]hexane-2-carboxamide], the IC50 was under 0.05 µM.
For the molecule `O=C(Nc1ccn(-c2ccc(F)c(F)c2)n1)C1(c2ncccc2F)CC12CC2` (stereo not shown) [Compound 522, N-[1-(3,4-difluorophenyl)pyrazol-3-yl]-2-(3-fluoro-2-pyridyl)spiro[2.2]pentane-2-carboxamide], the half-maximal inhibitory concentration (IC50) turned out to be 0.81 µM.
On the same count and under the same terms, the same measure for `COc1cc(F)ccc1-n1ccc(NC(=O)C2(c3ccccc3F)CC2)n1` [Compound 429, N-[1-(4-fluoro-2-methoxy-phenyl)pyrazol-3-yl]-1-(2-fluorophenyl)cyclopropanecarboxamide]: over 5 µM; for `Cc1cc(NC(=O)C2(c3ncccc3F)CC2(C)C)nn1-c1ccc(F)cc1F` (stereo not shown) [Compound 515, N-[1-(2,4-difluorophenyl)-5-methyl-pyrazol-3-yl]-1-(3-fluoro-2-pyridyl)-2,2-dimethyl-cyclopropanecarboxamide]: over 5 µM; for `COc1cccc(C2(C(=O)Nc3ccn(-c4ccccc4)n3)CC2)c1` [Compound 26, 1-(3-methoxyphenyl)-N-(1-phenylpyrazol-3-yl)cyclopropanecarboxamide]: 0.27 µM.
On the same count and under the same terms, with `O=C(Nc1ccn(-c2cncc(F)c2)n1)C1(c2ncccc2F)CC1` [Compound 423, 1-(3-fluoropyridin-2-yl)-N-(1-(5-fluoropyridin-3-yl)-1H-pyrazol-3-yl)cyclopropane-1-carboxamide] the figure was 0.046 µM; with `O=C(Nc1ccn(-c2ccccc2)n1)C1(c2cccc(F)c2)CC1` [Compound 21, 1-(3-fluorophenyl)-N-(1-phenylpyrazol-3-yl)cyclopropanecarboxamide], 0.15 µM.
Still for that read-out and setting: the same measure for `O=C(Cc1ccccc1)Nc1ccn(-c2ccc(F)cc2)n1` [Compound 181, N-[1-(4-fluorophenyl)pyrazol-3-yl]-2-phenyl-acetamide]: 0.25 µM.
As to `O=C(Nc1ccn(-c2ccccc2)n1)C1(c2ccccc2)CCOCC1` [Compound 178, 4-phenyl-N-(1-phenylpyrazol-3-yl)tetrahydropyran-4-carboxamide], the concentration for half-maximal inhibition (IC50) is over 5 µM.
The same measure, in the same setting: the same measure for `O=C(Nc1ccn(-c2cc(F)ncc2F)n1)C1(c2ccccc2F)CC1` [Compound 116, N-[1-(2,5-difluoro-4-pyridyl)pyrazol-3-yl]-1-(2-fluorophenyl)cyclopropanecarboxamide]: 0.076 µM; for `O=C(Cc1ccc(Cl)c(Cl)c1)Nc1ccn(-c2ccccc2)n1` [Compound 68, 2-(3,4-dichlorophenyl)-N-(1-phenylpyrazol-3-yl)acetamide]: over 5 µM; for `CC1(C)CC1(C(=O)Nc1ccn(-c2ccccc2)n1)c1ccccc1F` (stereo not shown) [Compound 135, 1-(2-fluorophenyl)-2,2-dimethyl-N-(1-phenylpyrazol-3-yl)cyclopropanecarboxamide]: 0.68 µM.
Still for that read-out and setting: the same measure for `O=C(Cc1cc(F)c(F)cc1F)Nc1ccn(-c2ccccc2)n1` [Compound 75, N-(1-phenylpyrazol-3-yl)-2-(2,4,5-trifluorophenyl)acetamide]: over 2 µM.
Still for that read-out and setting: with `O=C(Nc1ccn(-c2ccccc2)n1)C(c1ccccc1)C1CCCC1` (stereo not shown) [Compound 167, 2-cyclopentyl-2-phenyl-N-(1-phenylpyrazol-3-yl)acetamide] the figure was over 5 µM; with `O=C(Nc1ccn(-c2ccc(C(F)(F)F)cc2)n1)C1(c2ccccc2)CC1` [Compound 156, 1-phenyl-N-[1-[4-(trifluoromethyl)phenyl]pyrazol-3-yl]cyclopropanecarboxamide], over 2 µM; with `O=C(Nc1ccn(-c2ccnc(F)c2)n1)C1(c2ccccc2)CC1(Cl)Cl` (stereo not shown) [Compound 147, 2,2-dichloro-N-[1-(2-fluoro-4-pyridyl)pyrazol-3-yl]-1-phenyl-cyclopropanecarboxamide], 0.28 µM.
Turning to `Cn1cnnc1-n1ccc(NC(=O)C2(c3ccccc3F)CC2)n1` [Compound 427, 1-(2-fluorophenyl)-N-[1-(4-methyl-1,2,4-triazol-3-yl)pyrazol-3-yl]cyclopropanecarboxamide], the IC50 is over 2 µM.
In the case of `O=C(Cc1c(Cl)cccc1Cl)Nc1ccn(-c2ccccc2)n1` [Compound 70, 2-(2,6-dichlorophenyl)-N-(1-phenylpyrazol-3-yl)acetamide], the half-inhibitory concentration (IC50) was over 2 µM.
On the same count and under the same terms, the same measure for `O=C(Nc1ccn(-c2cccc(Cl)c2)n1)C1(c2ccccc2F)CC1` [Compound 128, N-[1-(3-chlorophenyl)pyrazol-3-yl]-1-(2-fluorophenyl)cyclopropanecarboxamide]: 0.23 µM.
Regarding `O=C(Nc1ccn(-c2ccccc2)n1)C1(c2ccccc2)CCC1` [Compound 35, 1-phenyl-N-(1-phenylpyrazol-3-yl)cyclobutanecarboxamide], the IC50 is 0.33 µM.
Same read-out and setting: the same measure for `O=C(Cc1cccc(Cl)c1)Nc1ccn(-c2ccccc2)n1` [Compound 50, 2-(3-chlorophenyl)-N-(1-phenylpyrazol-3-yl)acetamide]: over 5 µM; for `O=C(Cc1ccccc1)Nc1ccn(-c2cccc(C(F)(F)F)c2)n1` [Compound 157, 2-phenyl-N-[1-[3-(trifluoromethyl)phenyl]pyrazol-3-yl]acetamide]: over 5 µM; for `O=C(Cc1ccc(O)c(F)c1)Nc1ccn(-c2ccccc2)n1` [Compound 56, 2-(3-fluoro-4-hydroxy-phenyl)-N-(1-phenylpyrazol-3-yl)acetamide]: over 5 µM.
The same measure, in the same setting: with `Cc1ccc(C(C)C(=O)Nc2ccn(-c3ccccc3)n2)cc1` (stereo not shown) [Compound 77, N-(1-phenylpyrazol-3-yl)-2-(p-tolyl)propanamide] the figure was 3.3 µM.
For the molecule `Cc1cc(-n2ccc(NC(=O)Cc3ccc(F)cc3)n2)ccn1` [Compound 111, 2-(4-fluorophenyl)-N-[1-(2-methyl-4-pyridyl)pyrazol-3-yl]acetamide], the half-maximal inhibitory concentration (IC50) was over 10 µM.
Still for that read-out and setting: the same measure for `O=C(Nc1ccn(-c2cncc(OC(F)F)c2)n1)C1(c2ccc(F)cn2)CC1` [Compound 490, N-[1-[5-(difluoromethoxy)-3-pyridyl]pyrazol-3-yl]-1-(5-fluoro-2-pyridyl)cyclopropanecarboxamide]: over 5 µM.
On to `CC(C)C(C(=O)Nc1ccn(-c2ccccc2)n1)c1ccccc1` (stereo not shown) [Compound 31, 3-methyl-2-phenyl-N-(1-phenylpyrazol-3-yl)butanamide], for which the IC50 was over 2 µM.
For the molecule `O=C(Nc1ccn(-c2ccncc2)n1)C1(c2ccccc2F)CC1` [Compound 101, 1-(2-fluorophenyl)-N-[1-(4-pyridyl)pyrazol-3-yl]cyclopropanecarboxamide], the concentration for half-maximal inhibition (IC50) amounted to 0.075 µM.
Same read-out and setting: the same measure for `COc1ccc(CC(=O)Nc2ccn(-c3ccccc3)n2)cc1F` [Compound 63, 2-(3-fluoro-4-methoxy-phenyl)-N-(1-phenylpyrazol-3-yl)acetamide]: over 5 µM.
